According to PMC11277489, “Novel Piperazine Derivatives of Vindoline as Anticancer Agents” (International Journal of Molecular Sciences, 2024):
Where two headings read alike, the source gives them in different places.

Experiments:
[1] = test system: OVCAR-5; experiment: NCI60 five-dose screen, Ovarian Cancer; format: cell-based; conditions: Homo sapiens; OVCAR-5, Ovarian Cancer; five-dose screen; read-out: GI50
[2] = test system: HL-60(TB); experiment: NCI60 five-dose screen, Leukemia; format: cell-based; conditions: Homo sapiens; HL-60(TB), Leukemia; five-dose screen; read-out: GI50
[3] = test system: SR; experiment: NCI60 one-dose screen (10 μM), Leukemia; format: cell-based; conditions: Homo sapiens, 10 μM, Leukemia, read-out: Growth percent rate
[4] = test system: MOLT-4; experiment: NCI60 five-dose screen, Leukemia; format: cell-based; conditions: Homo sapiens; MOLT-4, Leukemia; five-dose screen; read-out: GI50
[5] = test system: OVCAR-4; experiment: NCI60 five-dose screen, Ovarian Cancer; format: cell-based; conditions: Homo sapiens; OVCAR-4, Ovarian Cancer; five-dose screen; read-out: GI50
[6] = test system: ACHN; experiment: NCI60 five-dose screen, Renal Cancer; format: cell-based; conditions: Homo sapiens, Renal Cancer, five-dose screen, read-out: GI50
[7] = test system: SK-OV-3; experiment: NCI60 one-dose screen (10 μM), Ovarian Cancer; format: cell-based; conditions: Homo sapiens; 10 μM; SK-OV-3, Ovarian Cancer; read-out: Growth percent rate
[8] = test system: MDA-MB-231/ATCC; experiment: NCI60 one-dose screen (10 μM), Breast Cancer; format: cell-based, human; conditions: Homo sapiens; 10 μM; MDA-MB-231/ATCC, Breast Cancer; read-out: Growth percent rate
[9] = test system: MCF7; experiment: NCI60 five-dose screen, Breast Cancer; format: cell-based; conditions: Homo sapiens; MCF7, Breast Cancer; five-dose screen; read-out: GI50
[10] = test system: MDA-MB231ATCC; experiment: NCI60 five-dose screen, Breast Cancer; format: cell-based; conditions: Homo sapiens, MDA-MB-231; MDA-MB231ATCC, Breast Cancer; five-dose screen; read-out: GI50
[11] = test system: EKVX; experiment: NCI60 one-dose screen (10 μM), Non-small Cell Lung Cancer; format: cell-based; conditions: Homo sapiens, 10 μM, Non-small Cell Lung Cancer, read-out: Growth percent rate
[12] = test system: HCC-2998; experiment: NCI60 five-dose screen, Colon Cancer; format: cell-based; conditions: Homo sapiens; HCC-2998, Colon Cancer; five-dose screen; read-out: GI50
[13] = test system: M14; experiment: NCI60 five-dose screen, Melanoma; format: cell-based; conditions: Homo sapiens; M14, Melanoma; five-dose screen; read-out: GI50
[14] = test system: CCRF-CEM; experiment: NCI60 five-dose screen, Leukemia; format: cell-based; conditions: Homo sapiens, Leukemia, five-dose screen, read-out: GI50
[15] = test system: MDA-MB-435; experiment: NCI60 one-dose screen (10 μM), Melanoma; format: cell-based; conditions: Homo sapiens; 10 μM; MDA-MB-435, Melanoma; read-out: Growth percent rate
[16] = test system: SK-MEL-5; experiment: NCI60 five-dose screen, Melanoma; format: cell-based; conditions: Homo sapiens; SK-MEL-5, Melanoma; five-dose screen; read-out: GI50
[17] = test system: NCI-H23; experiment: NCI60 one-dose screen (10 μM), Non-small Cell Lung Cancer; format: cell-based; conditions: Homo sapiens; 10 μM; NCI-H23, Non-small Cell Lung Cancer; read-out: Growth percent rate
[18] = test system: A549/ATCC; experiment: NCI60 five-dose screen, Non-small Cell Lung Cancer; format: cell-based; conditions: Homo sapiens; A549/ATCC, Non-small Cell Lung Cancer; five-dose screen; read-out: GI50
[19] = test system: SW-620; experiment: NCI60 five-dose screen, Colon Cancer; format: cell-based; conditions: Homo sapiens; SW-620, Colon Cancer; five-dose screen; read-out: GI50
[20] = test system: UACC-62; experiment: NCI60 one-dose screen (10 μM), Melanoma; format: cell-based; conditions: Homo sapiens; 10 μM; UACC-62, Melanoma; read-out: Growth percent rate
[21] = test system: NCI-H322M; experiment: NCI60 five-dose screen, Non-small Cell Lung Cancer; format: cell-based; conditions: Homo sapiens, Non-small Cell Lung Cancer, five-dose screen, read-out: GI50
[22] = test system: CAKI-1; experiment: NCI60 five-dose screen, Renal Cancer; format: cell-based; conditions: Homo sapiens; CAKI-1, Renal Cancer; five-dose screen; read-out: GI50
[23] = test system: 60 human tumor cell lines (NCI60); experiment: NCI60 five-dose screen, whole panel and sub-panel means; format: cell-based; conditions: read-out: GI50 Mean
[24] = test system: HCC-2998; experiment: NCI60 one-dose screen (10 μM), Colon Cancer; format: cell-based; conditions: Homo sapiens; 10 μM; HCC-2998, Colon Cancer; read-out: Growth percent rate
[25] = test system: HOP-62; experiment: NCI60 five-dose screen, Non-small Cell Lung Cancer; format: cell-based; conditions: Homo sapiens; HOP-62, Non-small Cell Lung Cancer; five-dose screen; read-out: GI50
[26] = test system: UACC-257; experiment: NCI60 five-dose screen, Melanoma; format: cell-based; conditions: Homo sapiens; UACC-257, Melanoma; five-dose screen; read-out: GI50
[27] = test system: CAKI-1; experiment: NCI60 one-dose screen (10 μM), Renal Cancer; format: cell-based; conditions: Homo sapiens; 10 μM; CAKI-1, Renal Cancer; read-out: Growth percent rate
[28] = test system: T-47D; experiment: NCI60 one-dose screen (10 μM), Breast Cancer; format: cell-based; conditions: Homo sapiens, T47D; 10 μM; T-47D, Breast Cancer; read-out: Growth percent rate
[29] = test system: OVCAR-4; experiment: NCI60 one-dose screen (10 μM), Ovarian Cancer; format: cell-based; conditions: Homo sapiens; 10 μM; OVCAR-4, Ovarian Cancer; read-out: Growth percent rate
[30] = test system: UO-31; experiment: NCI60 one-dose screen (10 μM), Renal Cancer; format: cell-based; conditions: Homo sapiens; 10 μM; UO-31, Renal Cancer; read-out: Growth percent rate
[31] = test system: MALME-3M; experiment: NCI60 five-dose screen, Melanoma; format: cell-based; conditions: Homo sapiens; MALME-3M, Melanoma; five-dose screen; read-out: GI50
[32] = test system: OVCAR-5; experiment: NCI60 one-dose screen (10 μM), Ovarian Cancer; format: cell-based; conditions: Homo sapiens; 10 μM; OVCAR-5, Ovarian Cancer; read-out: Growth percent rate
[33] = test system: HOP-92; experiment: NCI60 five-dose screen, Non-small Cell Lung Cancer; format: cell-based; conditions: Homo sapiens; HOP-92, Non-small Cell Lung Cancer; five-dose screen; read-out: GI50
[34] = test system: UACC-62; experiment: NCI60 five-dose screen, Melanoma; format: cell-based; conditions: Homo sapiens; UACC-62, Melanoma; five-dose screen; read-out: GI50
[35] = test system: NCI/ADR-RES; experiment: NCI60 five-dose screen, Ovarian Cancer; format: cell-based; conditions: Homo sapiens, Ovarian Cancer, five-dose screen, read-out: GI50
[36] = test system: NCI-H23; experiment: NCI60 five-dose screen, Non-small Cell Lung Cancer; format: cell-based; conditions: Homo sapiens; NCI-H23, Non-small Cell Lung Cancer; five-dose screen; read-out: GI50
[37] = test system: BT-549; experiment: NCI60 one-dose screen (10 μM), Breast Cancer; format: cell-based; conditions: Homo sapiens; 10 μM; BT-549, Breast Cancer; read-out: Growth percent rate
[38] = test system: NCI-H226; experiment: NCI60 one-dose screen (10 μM), Non-small Cell Lung Cancer; format: cell-based; conditions: Homo sapiens; 10 μM; NCI-H226, Non-small Cell Lung Cancer; read-out: Growth percent rate
[39] = test system: NCI-H460; experiment: NCI60 five-dose screen, Non-small Cell Lung Cancer; format: cell-based; conditions: Homo sapiens; NCI-H460, Non-small Cell Lung Cancer; five-dose screen; read-out: GI50
[40] = test system: MDA-MB-468; experiment: NCI60 one-dose screen (10 μM), Breast Cancer; format: cell-based; conditions: Homo sapiens; 10 μM; MDA-MB-468, Breast Cancer; read-out: Growth percent rate
[41] = test system: NCI/ADR-RES; experiment: NCI60 one-dose screen (10 μM), Ovarian Cancer; format: cell-based; conditions: Homo sapiens, 10 μM, Ovarian Cancer, read-out: Growth percent rate
[42] = test system: HOP-92; experiment: NCI60 one-dose screen (10 μM), Non-small Cell Lung Cancer; format: cell-based; conditions: Homo sapiens; 10 μM; HOP-92, Non-small Cell Lung Cancer; read-out: Growth percent rate
[43] = test system: PC-3; experiment: NCI60 one-dose screen (10 μM), Prostate Cancer; format: cell-based; conditions: Homo sapiens; 10 μM; PC-3, Prostate Cancer; read-out: Growth percent rate
[44] = Homo sapiens, 60 cell, mean over all 60 cell lines
[45] = Homo sapiens, mean over Breast Cancer panel
[46] = Homo sapiens, mean over CNS Cancer panel
[47] = Homo sapiens, mean over Colon Cancer panel
[48] = Homo sapiens, mean over Leukemia panel
[49] = Homo sapiens, mean over Melanoma panel
[50] = Homo sapiens, mean over Non-small Cell Lung Cancer panel
[51] = Homo sapiens, mean over Ovarian Cancer panel
[52] = Homo sapiens, mean over Prostate Cancer panel
[53] = Homo sapiens, mean over Renal Cancer panel

In the case of `CCC12C=CCN3CCC4(c5cc(NC(=O)CN6CCN(C(c7ccc(F)cc7)c7ccc(F)cc7)CC6)c(OC)cc5N(C)C4C(O)(C(=O)OC)C1OC(C)=O)C32` (centres unmarked) [Compound 20], the GI50 [1] is reported as 3550 nM, the GI50 [2] is reported as 2190 nM and the activity at 10 µM [3] is reported as 0.34%. It also gave a GI50 [4] of 2140 nM, a GI50 [5] of 3310 nM and a GI50 [6] of 4900 nM. It also gave an activity at 10 µM [7] of 45.4%, an activity at 10 µM [8] of -4.47% and a GI50 [9] of 2950 nM. The GI50 [10] was 9120 nM, the activity at 10 µM [11] was 16.2% and the GI50 [12] was 3890 nM. It also gave a GI50 [13] of 4070 nM, a GI50 [14] of 2880 nM and an activity at 10 µM [15] of 22.2%. It also gave a GI50 [16] of 2340 nM, an activity at 10 µM [17] of 38% and a GI50 [18] of 4370 nM. The GI50 [19] was 3980 nM, the activity at 10 µM [20] was 28.5% and the GI50 [21] was 12000 nM. It also gave a GI50 [22] of 3160 nM, a GI50 [23, 44] of 6270 nM and a GI50 [23, 45] of 4520 nM. It also gave a GI50 [23, 46] of 4400 nM, a GI50 [23, 47] of 3400 nM and a GI50 [23, 48] of 2380 nM. The GI50 [23, 49] was 5600 nM, the GI50 [23, 50] was 15700 nM and the GI50 [23, 51] was 5300 nM. It also gave a GI50 [23, 52] of 5390 nM, a GI50 [23, 53] of 5230 nM and an activity at 10 µM [24] of 3.93%. For the same compound, the GI50 [25] was 89100 nM, the GI50 [26] was 5250 nM and the activity at 10 µM [27] was 27.7%. It also gave an activity at 10 µM [28] of 10.2%, an activity at 10 µM [29] of 31.4% and an activity at 10 µM [30] of 27.2%. It also gave a GI50 [31] of 8130 nM, an activity at 10 µM [32] of 66.9% and a GI50 [33] of 5010 nM. For the same compound, the GI50 [34] was 8130 nM, the GI50 [35] was 4470 nM and the GI50 [36] was 6760 nM. The activity at 10 µM [37] was -37.5%, the activity at 10 µM [38] was 24.1% and the GI50 [39] was 3160 nM. The activity at 10 µM [40] was 10.9% and the activity at 10 µM [41] was 20.9%.

`CC[C@]12C=CCN3CC[C@@]4(c5ccc(OC)cc5N(C)[C@H]4[C@@](O)(C(=O)OC)[C@@H]1OC(=O)CCC(=O)N1CCN(C(c4ccc(F)cc4)c4ccc(F)cc4)CC1)[C@@H]32` [Compound 31] was tested, and the GI50 [1] was 2180 nM, the GI50 [2] was 1930 nM and the GI50 [4] was 1350 nM. The GI50 [5] was 1620 nM, the GI50 [6] was 2060 nM and the activity at 10 µM [7] was -15.6%. The GI50 [9] was 1740 nM, the activity at 10 µM [42] was -44.9% and the GI50 [10] was 3020 nM. It also gave an activity at 10 µM [11] of -17.8%, a GI50 [12] of 1240 nM and a GI50 [13] of 3550 nM. It also gave a GI50 [14] of 2110 nM, an activity at 10 µM [15] of -23.3% and a GI50 [16] of 1840 nM. The activity at 10 µM [17] was -23.4%, the GI50 [18] was 2670 nM and the activity at 10 µM [43] was -28.5%. For the same compound, the GI50 [19] was 2270 nM, the activity at 10 µM [20] was -84.3% and the GI50 [21] was 4990 nM. For the same compound, the GI50 [22] was 3070 nM, the GI50 [23, 44] was < 4000 nM and the GI50 [23, 45] was 2000 nM. For the same compound, the GI50 [23, 46] was 2600 nM, the GI50 [23, 47] was 2230 nM and the GI50 [23, 48] was 1890 nM. The GI50 [23, 49] was 2400 nM, the GI50 [23, 50] was 2590 nM and the GI50 [23, 51] was 2150 nM. It also gave a GI50 [23, 52] of 2270 nM, a GI50 [23, 53] of 2330 nM and a GI50 ([23]; mean over all 60 cell lines) of 2290 nM. It also gave an activity at 10 µM [24] of -66.9%, a GI50 [25] of 2550 nM and a GI50 [26] of 2700 nM. For the same compound, the activity at 10 µM [27] was 1.73%, the activity at 10 µM [29] was -34.6% and the GI50 [31] was 2200 nM. It also gave a GI50 [33] of 1990 nM, a GI50 [34] of 1920 nM and a GI50 [35] of 1950 nM. The GI50 [36] was 2700 nM, the activity at 10 µM [37] was -60.6% and the activity at 10 µM [38] was -32.4%. The GI50 [39] was 1930 nM, the activity at 10 µM [40] was -69.1% and the activity at 10 µM [41] was -62.1%.
